The values below come from PMC5456363 (PLoS ONE, 2017).

The nature of data set [1]: Peptide stability in commercial serum (CS). Format: in vitro ADME, mouse. The settings on record: commercial mouse serum, 37°C, 1 h, 31.5 μmol/L; for remaining at 1 h, 31.5 μmol/L: commercial pooled serum, read-out: intact peptide remaining relative to time zero. As for the experimental part: (§1) All stability tests were performed at least in triplicates.
A short description of data set [2]: Stability and metabolites across fresh blood, serum and plasma (all six matrices). The settings on record: for Overall stability / Sequential stability: fresh blood, serum, and plasma.
Description: Aqueous peptide solutions (3 g/L) were filled in a sterile syringe (1 mL, Dispomed Witt oHG, Gelnhausen, Deutschland) through the front end, the stainless-steel needle was attached, and blood (200 to 300 μL) was collected via cardiac puncture to obtain a peptide concentration of approximately 31,5 μmol/L. The syringe was carefully disconnected from the needle and sealed while keeping the needle in the heart. A second empty syringe was attached to the needle and 0.5 to 0.8 mL blood were collected. In parallel, the sealed syringe was gently shaken for one minute to mix the peptide solution with blood and further incubated on a Stuart Rotator SB3 (Barloworld, Scientific LTD, Stone, Staffordshire, U.K.) placed in an incubator at 37°C. […] The plasma sample designated as “blood” (B) was precipitated with trichloroacetic acid (TCA), as described below. Blood collected in the second syringe was transferred to a polypropylene tube (Eppendorf AG, Hamburg, Germany) and a BD Microtainer® serum separator tube (SST; Becton, Dickinson and Company). Polypropylene tubes were centrifuged immediately (12,000 x g, 2 to 4 min) to obtain “direct serum” (DS) as supernatant, whereas the serum separator tubes were incubated (room temperature, 1 h), centrifuged (12,000 x g, 2 min), and collected as “activated serum” (AS). Pooled mouse serum was purchased from PAA Laboratories GmbH (Pasching, Austria) and pooled CD-1 mouse plasma containing K2EDTA or lithium heparin were obtained from Innovative Research (Novi, MI, USA).
Peptides were mixed with serum or plasma to a final concentration of 31.5 μmol/L and incubated (37°C, 750 rpm; Thermomixer, Eppendorf AG, Hamburg, Germany). Aliquots (20 or 40 μL) taken after 0 and 60 min (0, 10 and 30 min for Api88) were mixed with TCA to obtain a final concentration of 3% (w/v) and incubated on ice (10 min). After centrifugation (12,000 x g, 5 min), the supernatant was neutralized with sodium hydroxide (1 mol/L) and stored at −20°C. Samples were analyzed by RP-HPLC on a Jupiter C18-column (internal diameter: 2 mm, length: 150 mm, particle size: 5 μm, pore size: 30 nm) using a linear aqueous acetonitrile gradient containing TFA (0.1%, v/v) as ion pair reagent. Peptides were detected by recording the absorbance at 214 nm and quantified by their peak areas relative to the initial peak areas (0 min). All stability tests were performed at least in triplicates.
Metabolites were identified on an Agilent 1100 LC system (Agilent Technologies, Santa Clara, CA, USA) coupled on-line via a UV-detector (absorbance recorded at 214 nm) to the electrospray ionization source on an ion trap mass spectrometer (ESI-IT-MS, Esquire HCT, Bruker Daltonics GmbH, Bremen, Germany). Samples were separated on an Aqua C18-column (inner diameter: 2 mm, length: 150 mm, particle size: 3 μm, pore size: 12.5 nm, Phenomenex; column temperature: 60°C) at a flow rate of 0.2 mL/min using a linear gradient of aqueous acetonitrile in the presence of formic acid (FA; 0.1%, v/v) as ion pair reagent. […] The ESI-IT-MS was operated in positive ion mode. Ionization was carried out at 365°C (source temperature) using nitrogen as curtain gas (40 psi) and dry gas (9 L/min). Mass spectra were acquired for an m/z range from 400 to 1300 at a scan rate of 8100 m/z-units per second in standard enhanced mode.
A short description of data set [3]: Peptide stability in EDTA plasma (EP). Format: in vitro ADME, CD-1 mouse. The settings on record: 37°C, 1 h, 31.5 μmol/L. On the procedure:
as §1

Data set [4] in a line: Peptide stability in direct serum (DS). Format: in vitro ADME, CD-1 mice. To be noted: 37°C, 1 h, 31.5 μmol/L; for remaining at 1 h, 31.5 μmol/L: CD-1, mouse, direct serum (supernatant of blood centrifuged immediately), read-out: intact peptide remaining relative to time zero. On the procedure:
as §1

For data set [5] the following is noted: cited from earlier work.
The nature of data set [6]: Peptide stability in heparin plasma (HP). The settings on record: 37°C, 1 h, 31.5 μmol/L. Format: in vitro ADME, CD-1 mouse. As for the experimental part: as §1
A short description of data set [7]: Peptide stability in fresh blood taken by cardiac puncture into a syringe containing the peptide (blood, B). Format: in vitro ADME, CD-1 mice. To be noted: blood, 37°C, 1 h, 31.5 μmol/L; for remaining at 1 h: CD-1, mouse, fresh whole blood, read-out: intact peptide remaining relative to time zero. On the procedure: as §1
The nature of data set [8]: Peptide stability in activated serum (AS). Format: in vitro ADME, CD-1 mice. To be noted: 37°C, 1 h, 31.5 μmol/L; for remaining at 1 h, 31.5 μmol/L: CD-1, mouse, read-out: intact peptide remaining relative to time zero. As for the experimental part:
as §1

Data set [9] can be described thus: “activated serum” (AS): serum separator tubes incubated (room temperature, 1 h), centrifuged. To be noted: CD-1 mice, 37°C, up to 60 min.
Data set [10] in a line: “direct serum” (DS): blood in polypropylene tubes centrifuged immediately. To be noted: CD-1 mice, 37°C, up to 60 min.
The nature of data set [11]: blood collected via cardiac puncture into a syringe containing the peptide solution (“blood”, B). The settings on record: CD-1 mice, 37°C, up to 60 min.
The nature of data set [12]: Pooled mouse serum (PAA Laboratories), commercial serum (CS). The settings on record: 37°C, up to 60 min.
Data set [13] can be described thus: pooled CD-1 mouse plasma containing lithium heparin (heparin plasma, HP). The settings on record: 37°C, up to 60 min.
A short description of data set [14]: pooled CD-1 mouse plasma containing K2EDTA (EDTA plasma, EP). The settings on record: 37°C, up to 60 min.
The next data set relates to human α-thrombin. In words: human α-thrombin. The settings on record: up to 24 hours.

Values joined by “and” are separate entries in the source; they are usually repeats but may differ in a detail not shown here. Equal values may be shown once. “Also recorded” adds a separate entry of the source. Non-standard residues stand in square brackets, D forms with d. Residues, ends and D or L forms follow the SMILES beside them. No end group written: not given here. *: point of attachment. Orn(α-tetramethylguanidino) = CN(C)C(=N[C@@H](CCCN)C(=O)*)N(C)C; Orn = NCCC[C@H](N)C(=O)O

Regarding `CC[C@H](C)[C@H](NC(=O)[C@H](Cc1ccc(O)cc1)NC(=O)[C@@H](NC(=O)[C@@H]1CCCN1C(=O)[C@H](CCCNC(=N)N)NC(=O)[C@H](CC(N)=O)NC(=O)[C@H](CC(N)=O)NC(=O)[C@H](CCCN)N=C(N(C)C)N(C)C)C(C)C)C(=O)N1CCC[C@H]1C(=O)N[C@@H](CCCNC(=N)N)C(=O)N1CCC[C@H]1C(=O)N[C@@H](CCCNC(=N)N)C(=O)N1CCC[C@H]1C(=O)N1CCC[C@H]1C(=O)N[C@@H](Cc1c[nH]cn1)C(=O)N1CCC[C@H]1C(=O)N[C@@H](CCCN)C(=O)N[C@@H](CC(C)C)C(N)=O` [Api134, gu-ONNRPVYIPRPRPPHPOL-NH2] ({Orn(α-tetramethylguanidino)}-NNRPVYIPRPRPPHP[Orn]L-NH2), the fraction remaining at 1 h, 31.5 μmol/L in data set [1] was found to be 78 ± 2%. Besides, in data set [2], the Overall stability entry is reported as “High”. In [2], the Sequential stability entry is reported as “Blood = Plasma = Serum”. The “intact peptide remaining relative to time zero” value in data set [3], in [4], in [6], in data set [7] and in data set [8] was at least 94% in each case. The “half-life time in mouse serum” value in [5] (in vitro, mouse serum) is on record as 4 h.

For the molecule `CC[C@H](C)[C@H](NC(=O)[C@H](CCCN)NC(=O)[C@H](CCCNC(=N)N)NC(=O)[C@@H]1CCCN1C(=O)[C@@H]1CCCN1C(=O)[C@H](CCCNC(=N)N)NC(=O)[C@@H]1CCCN1C(=O)[C@H](CCCNC(=N)N)NC(=O)[C@@H]1CCCN1C(=O)[C@H](CC(C)C)NC(=O)[C@H](Cc1ccc(O)cc1)NC(=O)[C@@H]1CCCN1C(=O)[C@@H]1CCCN1C(=O)[C@H](CCCCN)NC(=O)[C@H](CC(=O)O)NC(=O)[C@@H](N)C(C)C)C(=O)N[C@@H](Cc1ccc(O)cc1)C(=O)N[C@@H](CC(N)=O)C(=O)N[C@@H](CCCN)C(N)=O` [Onc72, VDKPPYLPRPRPPROIYNO-NH2] (H-VDKPPYLPRPRPPR[Orn]IYN[Orn]-NH2), the amount remaining at 1 h, 31.5 μmol/L came to 64 ± 2% in data set [1]; 47 ± 3% in [3] (CD-1, mouse, pooled plasma containing K2EDTA, read-out: intact peptide remaining relative to time zero); 94 ± 8% in [4]; 62 ± 8% in data set [6] (CD-1, mouse, pooled plasma containing lithium heparin, read-out: intact peptide remaining relative to time zero); 80 ± 12% in data set [8]. Further, in data set [2], the Overall stability result is “Medium”. In [2], the Sequential stability entry is recorded as “Blood = Serum > Plasma”. Also, the serum half-life time in data set [5] (mouse serum) is recorded as 3 h. For the same molecule, the “peptide remaining in serum after one hour, previous study” value in [5] (serum, 1 h) is given as 80%. In data set [7], the fraction remaining at 1 h amounted to 103 ± 11%.

For the molecule DTEDKGEFLSEGGGVR, the fragment found entry was “FPA(2–16); TEDKGEFLSEGGGVR; also recorded: FPA(3–16); EDKGEFLSEGGGVR” in data set [9]; “FPA(2–16); TEDKGEFLSEGGGVR; also recorded: FPA(3–16); EDKGEFLSEGGGVR” in data set [10]; “FPA(2–16); TEDKGEFLSEGGGVR, one hour; also recorded: FPA(3–16); EDKGEFLSEGGGVR, one hour” in data set [11].

For the molecule H-VDKPPYLPRPRPPRRIYNR-NH2, the cleaved bond result was “Arg14-Arg15, major; also recorded: Asn18-Arg19, major” in [12]; “Arg14-Arg15, major” in data set [9]; “Arg14-Arg15, major” in [10]; “Arg14-Arg15, major” in [11]; “Arg14-Arg15, major” in data set [13]; “Arg14-Arg15, major” in data set [14]. Besides, the fragment found entry in [9] was “Onc18(1–18); VDKPPYLPRPRPPRRIYN-OH”; in data set [10] it was “Onc18(1–18); VDKPPYLPRPRPPRRIYN-OH”; in data set [11] it was “Onc18(1–18); VDKPPYLPRPRPPRRIYN-OH”; in [13], “Onc18(2–14); DKPPYLPRPRPPR-OH”; in [14] it was “Onc18(1–15); VDKPPYLPRPRPPRR-OH”.

On to “H-VDKPPYLPRPRPPRRIYNR-NH2 [Onc18, VDKPPYLPRPRPPRRIYNR-NH2]”, for which the “intact peptide remaining relative to time zero” value in data set [1], in [3] and in data set [6] was “less than 13%” in each case. Moreover, the amount remaining at 1 h, 31.5 μmol/L was 12 ± 1% in data set [1], 72 ± 4% in data set [4] and 53 ± 4% in data set [8]. Also, the Overall stability entry in [2] was “Medium”. Further, in data set [2], the Sequential stability result is “Blood = Serum > Plasma”. Moreover, in data set [5] (mouse serum), the serum half-life time is 0.333 h and 0.417 h. In addition, the “fraction of peptide remaining in serum after 1 h, reported” value in data set [5] (serum, 1 h) is on record as “around a quarter”. Further, the amount remaining at 1 h in [7] came out at 42 ± 12%.

Take “VDKPPYLPRPRPPROIYNO-NH2 (H-VDKPPYLPRPRPPR[Orn]IYN[Orn]-NH2)”: the cleaved bond entry is listed as “Arg14-Orn15, major; also recorded: Asn18-Orn19, major; also recorded: Orn15-Ile16” in [12]; “Arg14-Orn15, major; also recorded: Asn18-Orn19, major” in data set [9]; “Arg14-Orn15, major; also recorded: Asn18-Orn19, major” in data set [10]; “Arg14-Orn15, major; also recorded: Asn18-Orn19, major” in data set [11]; “Arg14-Orn15, major; also recorded: Asn18-Orn19, major; also recorded: Orn15-Ile16” in data set [13]; “Arg14-Orn15, major; also recorded: Asn18-Orn19, major; also recorded: Orn15-Ile16” in [14].

As to VDKPPYLPRPRPPRRIYN-OH [Onc18(1–18)], the “Matrix in which the metabolite was identified” value in data set [2] (LC-MS, peak area at least 1% of initially incubated peptide, B blood, DS direct serum, AS activated serum, CS commercial serum, EP EDTA plasma, HP heparin plasma, All = all six) is “B, DS, AS, CS”.

With “VDKPPYLPRPRPPRrIYNr-NH2 (H-VDKPPYLPRPRPPR[dR]IYN[dR]-NH2)”, the not cleaved result in [12] is listed as “less than 2% being degraded after 1 hour”; in data set [9], “at least 96% remaining after 1 hour”; in data set [10], “at least 96% remaining after 1 hour”; in data set [11], “at least 96% remaining after 1 hour”; in data set [13], “at least 96% remaining after 1 hour”; in data set [14], “at least 96% remaining after 1 hour”.

Regarding “gu-ONNRPVYIPRPRPPHPOL-NH2 ({Orn(α-tetramethylguanidino)}-NNRPVYIPRPRPPHP[Orn]L-NH2)”, the fragment found entry was “Api134(1–17); also recorded: Api134 (1–16); also recorded: Api134(7–18); YIPRPRPPHPOL-NH2, major; also recorded: Api134 (8–18); IPRPRPPHPOL-NH2, major” in [12]; “Api134(1–17), minor; also recorded: Api134(1–15), minor; also recorded: Api134(7–18), minor” in data set [9]; “Api134(7–18), minor” in data set [13]. Further, the not cleaved in data set [11] and in data set [14] was ≥94% intact peptide (one hour) in each case.

In the case of “gu-ONNRPVYIPRPRPPHPRL-NH2 ({Orn(α-tetramethylguanidino)}-NNRPVYIPRPRPPHPRL-NH2; SMILES CC[C@H](C)[C@H](NC(=O)[C@H](Cc1ccc(O)cc1)NC(=O)[C@@H](NC(=O)[C@@H]1CCCN1C(=O)[C@H](CCCNC(=N)N)NC(=O)[C@H](CC(N)=O)NC(=O)[C@H](CC(N)=O)NC(=O)[C@H](CCCN)N=C(N(C)C)N(C)C)C(C)C)C(=O)N1CCC[C@H]1C(=O)N[C@@H](CCCNC(=N)N)C(=O)N1CCC[C@H]1C(=O)N[C@@H](CCCNC(=N)N)C(=O)N1CCC[C@H]1C(=O)N1CCC[C@H]1C(=O)N[C@@H](Cc1c[nH]cn1)C(=O)N1CCC[C@H]1C(=O)N[C@@H](CCCNC(=N)N)C(=O)N[C@@H](CC(C)C)C(N)=O)”, the cleaved bond entry is listed as “Arg17-Leu18, major” in data set [12]; “Arg17-Leu18, major” in data set [9]; “Arg17-Leu18, major” in [10]; “Arg17-Leu18, major” in [11]; “R17-L18, one hour” in the data set with human α-thrombin; “Arg17-Leu18, major” in [13]. In [14], the cleaved bond entry is recorded as “Arg17-Leu18, major”. Besides, the fragment found entry in [12] is “Api88(1–16); gu-ONNRPVYIPRPRPPHP-OH”; in data set [9] it was “Api88(1–16)”; in data set [10] it was “Api88(1–16)”; in [11], “Api88(1–16)”.
